Article doi:10.1101/510487v2 (biorxiv, 2019)

Key:
FH-hGlyT2; human GlyT2 = target: T1, FH-hGlyT2; human GlyT2 (Homo sapiens, UniProt Q9Y345); experiment: glycine uptake inhibition in PAE cells; format: cell-based
T1 sequence (Q9Y345 1-797): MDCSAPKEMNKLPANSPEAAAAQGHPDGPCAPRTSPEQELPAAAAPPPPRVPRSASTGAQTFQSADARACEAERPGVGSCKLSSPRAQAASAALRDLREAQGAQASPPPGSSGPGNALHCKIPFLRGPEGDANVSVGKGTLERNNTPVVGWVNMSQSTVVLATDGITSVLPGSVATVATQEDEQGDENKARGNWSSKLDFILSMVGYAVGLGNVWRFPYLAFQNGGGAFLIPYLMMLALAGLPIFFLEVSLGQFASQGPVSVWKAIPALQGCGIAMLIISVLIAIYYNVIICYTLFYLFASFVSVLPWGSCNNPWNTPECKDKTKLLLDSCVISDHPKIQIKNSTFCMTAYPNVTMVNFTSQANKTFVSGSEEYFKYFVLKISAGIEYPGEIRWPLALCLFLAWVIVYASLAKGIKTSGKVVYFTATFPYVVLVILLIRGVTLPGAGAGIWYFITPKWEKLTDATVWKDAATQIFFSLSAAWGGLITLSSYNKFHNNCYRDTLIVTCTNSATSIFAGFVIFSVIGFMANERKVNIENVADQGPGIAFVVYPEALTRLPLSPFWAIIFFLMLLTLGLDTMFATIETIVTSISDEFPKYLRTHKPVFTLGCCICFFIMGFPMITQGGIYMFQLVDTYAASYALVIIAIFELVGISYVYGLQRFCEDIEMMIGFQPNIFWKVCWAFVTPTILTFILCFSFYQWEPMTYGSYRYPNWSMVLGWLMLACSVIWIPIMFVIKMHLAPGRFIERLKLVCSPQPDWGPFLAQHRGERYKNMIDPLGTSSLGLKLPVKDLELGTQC

[1] = substrate: NCC(=O)O; experiment: glycine uptake in PAE cells; format: cell-based, Homo sapiens

O=C(O)CCCCSc1ncnc2[nH]c(=O)[nH]c12 [ZINC6865169]
IC50 (FH-hGlyT2; human GlyT2; pH 7.5, 10 min uptake): 518 ± 66 nM

O=c1[nH]c2c(c(=O)[nH]1)CCN(Cc1ccccc1)C2 [Lead 3]
IC50 (FH-hGlyT2; human GlyT2; pH 7.5, 10 min uptake): 33200 nM

CN(CC[C@@H](Oc1ccc(-c2ccccc2)cc1)c1ccc(F)cc1)CC(=O)O [ALX5407, reference compound]
IC50 (FH-hGlyT2; human GlyT2; slow rate of inhibition, data not shown): 1800 nM

N[C@@H](COC(c1cccc(F)c1)c1ccccc1OCc1ccccc1)C(=O)O (stereo partly drawn) [ALX1393, reference compound]
IC50 (FH-hGlyT2; human GlyT2; pH 7.5, 10 min uptake): 26 ± 3 nM

O=C(O)CCSc1[nH]c(=O)nc2[nH]c(=O)[nH]c12 [compound 1, ZINC6620309]
IC50 (FH-hGlyT2; human GlyT2; pH 7.5, 10 min uptake): 478 ± 28 nM

B1: FH-hGlyT2; human GlyT2 (Homo sapiens) (protein)
chain: T1 sequence (Q9Y345 1-797)
Km [1]: 123 µM
